Entries after “also recorded” stand apart in the source; their conditions may differ. Like-named read-outs stand apart in the source and are kept apart here.
Key:
[1] = in vitro; assay type: cell-based; details: human
Excerpt: (§1) Compounds were screened for non-specific cytotoxicity using the MTT assay before use in anti-αvβ3 functional assays. Unlike normal cells, cancer cell survival is often independent of αvβ3, and checking for cytotoxicity ensures inhibition of adhesion and invasion are truly from αvβ3 inhibition rather than cell death. […] In general, aminopyridines 53 and 54 were more cytotoxic than most THN-containing mimetics.
(§2) Cancer cell lines were obtained from ATCC (SK-Mel-2) or ECACC (U87-MG) and cultured in RPMI-1640 culture medium containing 10% foetal bovine serum (FBS), sodium pyruvate (1 mM) and L-glutamine (2 mM). All are human in origin. The αvβ3 adhesion assay was performed as previously described.[22,43]
(§3) Table S1 Cytotoxicity of compounds on the cell lines used in the functional assays (measured by MTT assay). Cells (2000 cells/well for Sk-Mel-2; 1000 cells/well for U87MG) were incubated for 96 hours at 37 °C in a total volume of 200 µL/well (180 μL medium + 20 μL test compound solution). After 96 hours, the medium was replaced by fresh medium containing 0.5 mg/ml (end conc.) MTT per well, incubated for 4 h then the plate processed and read as described in Sutherland et al. 1 […]
(§4) 1. M. Sutherland, A. Gordon, F. O. Al-Shammari, A. Throup, A. Cilia La Corte, H. Philippou, S. D.
(§5) Shnyder, L. H. Patterson and H. M. Sheldrake, Cancers, 2023, 15, 4023.
(§6) (also on this page, place not known: al.1 Supplementary Information (SI) for RSC Medicinal Chemistry. This journal is © The Royal Society of Chemistry 2024)
(§7) (1 picture or pasted object on this page, not shown here)

[2] = target: T1, αvβ3 (Homo sapiens, UniProt P05106+P06756); experiment: αvβ3-mediated SK-Mel-2 melanoma cell adhesion to fibronectin; assay type: cell-based; details: for inhibition at 5 µM: read-out: Adhesion % inhibition @5 μM
T1 construct: αvβ3-expressing U87-MG glioblastoma and SK-Mel-2 melanoma cells; host or cells: SK-Mel-2 human melanoma cells
Experimental: as §2

[3] = tested on: U87-MG glioblastoma cells; experiment: U87-MG 3-D spheroid invasion assay; assay type: cell-based; details: Homo sapiens, U-87 MG, mean ± SD
Experimental: Selected compounds were further investigated for effects on αvβ3-mediated cell invasion to model a key step in tumour progression and metastasis. U87-MG glioblastoma cells; a well-known αvβ3-expressing cell line model,[35,36] were used in a 3-D spheroid invasion model.[37]
as §2
Spheroids were formed from U87-MG cells (1000 cells per 30 μl hanging drop) according to the method of Nowicki and then embedded in collagen as follows.[37] Collagen I (1400 μL of 3 mg mL^−1) was added to a 1 mL Eppendorf tube on ice, supplemented with 0.2 mL of complete RPMI, and adjusted to pH 7.4 with 1 N NaOH. The collagen mixture was pipetted into each chamber of an 8-chamber cover glass and incubated at 37 °C for 45 minutes. Spheroids from hanging drops were transferred to each chamber of the cover glass, the medium allowed to evaporate, and then a 200 μL layer of collagen gel matrix was added to each chamber and incubated at 37 °C for 45 minutes. 200 μL of RPMI containing test compounds was added to each chamber and incubated at 37 °C, 5% CO2 for 7 days. The spheroids were observed frequently using inverted light microscopy at 10× objective lens, and images were captured and analysed using ImageJ.

[4] = Metabolic stability in mouse liver homogenates; assay type: in vitro ADME
Experimental: The methyl esters in 1 and 54 were cleaved to the corresponding free acids with half-lives of 5.4 minutes and 3.6 minutes respectively (ESI ^†). This was expected as small esters are frequently used to mask carboxylic acids with rapid ester hydrolysis releasing the active carboxylic acid in biological systems.
Compound metabolism in liver (ex vivo) was studied using (1 : 3) tissue homogenates of mouse liver. Mouse livers, supplied by the Institute of Cancer Therapeutics (ICT), under Home Office license guidelines (see below) were homogenized in phosphate-buffered saline. Liver homogenates were spiked with compound of interest (10 μM final concentration) and incubated at 37 °C. Reaction aliquots were removed over a 120 minute period, proteins precipitated using acetonitrile (1 : 3), and compound and metabolites analyzed by liquid chromatography-mass spectrometry (LC–MS) at the appropriate SIR (single ion recording) channel.
Detection was performed on a Waters Alliance system using a photodiode array detector, and a Waters Micromass ZQ quadrupole electrospray mass spectrometer connected in series. Compound and metabolites were separated on a RPB reversed-phase high-performance liquid chromatography column (HiChrom) using a mobile phase of acetonitrile/water/0.1% formic acid, with a gradient from 20% to 70% acetonitrile over 30 minutes at 1.1 mL min^−1.
Any metabolic intermediates were detected as singularly charged ions and identified by mass spectrometry.

[5] = in vitro; assay type: cell-based; details: human; remark: listed apart in the source
Excerpt: as §1, §2, §3, §4, §5, §6, §7

[6] = tested on: C57BL/6 mice; experiment: In vivo dose tolerability in C57BL/6 mice; set-up: species or system mouse; details: intraperitoneal, 4 consecutive days, female C57BL/6 mice
Experimental: Given compound 54's effectiveness at functional inhibition of αvβ3, its rapid conversion to a stable carboxylic acid, and our preference for developing an aminopyridine-based RGD mimetic over a THN-based one, 54 was therefore selected for in vivo dose tolerability studies in an immunocompetent C57BL/6 mouse model (Fig. 2).
Compound 54 was administered intraperitoneally three dose levels, up to its maximum soluble dose of 300 mg kg^−1 per day, for 4 consecutive days to female C57BL/6 immunocompetent mice, and mice were observed daily, and bodyweight measured frequently. […] Mo = mouse; Cont = solvent control.
Female adult C57BL/6 mice were used (Envigo, Blackthorn, UK). Mice all came from the same delivery and were randomly assigned to cages. They were kept in cages housed in isolation cabinets in an air-conditioned room with regular alternating cycles of light and darkness. They received Teklad 2018 diet (Envigo, Blackthorn, UK) and water ad libitum.
For evaluation of the safety of compound 54in vivo, the compound was dissolved in 15% DMSO/arachis oil, and then administered intraperitoneally as a single dose on four consecutive days, with the first day designated day 0, with 2 mice being treated at each dose level. The control was solvent administered intraperitoneally on the same schedule. […] Mice were observed daily for signs of deleterious effects, and bodyweight measured frequently.

[7] = SK-Mel-2 adhesion to fibronectin, mean ± SD
[8] = read-out: Adhesion % inhibition @50 μM, SK-Mel-2 adhesion to fibronectin, mean ± SD
[9] = SK-MEL-2, read-out: Adhesion % inhibition @50 μM (initial trial experiment), initial trial experiment, not tested further at this concentration

T1 sequence (P06756 31-889 limits assumed): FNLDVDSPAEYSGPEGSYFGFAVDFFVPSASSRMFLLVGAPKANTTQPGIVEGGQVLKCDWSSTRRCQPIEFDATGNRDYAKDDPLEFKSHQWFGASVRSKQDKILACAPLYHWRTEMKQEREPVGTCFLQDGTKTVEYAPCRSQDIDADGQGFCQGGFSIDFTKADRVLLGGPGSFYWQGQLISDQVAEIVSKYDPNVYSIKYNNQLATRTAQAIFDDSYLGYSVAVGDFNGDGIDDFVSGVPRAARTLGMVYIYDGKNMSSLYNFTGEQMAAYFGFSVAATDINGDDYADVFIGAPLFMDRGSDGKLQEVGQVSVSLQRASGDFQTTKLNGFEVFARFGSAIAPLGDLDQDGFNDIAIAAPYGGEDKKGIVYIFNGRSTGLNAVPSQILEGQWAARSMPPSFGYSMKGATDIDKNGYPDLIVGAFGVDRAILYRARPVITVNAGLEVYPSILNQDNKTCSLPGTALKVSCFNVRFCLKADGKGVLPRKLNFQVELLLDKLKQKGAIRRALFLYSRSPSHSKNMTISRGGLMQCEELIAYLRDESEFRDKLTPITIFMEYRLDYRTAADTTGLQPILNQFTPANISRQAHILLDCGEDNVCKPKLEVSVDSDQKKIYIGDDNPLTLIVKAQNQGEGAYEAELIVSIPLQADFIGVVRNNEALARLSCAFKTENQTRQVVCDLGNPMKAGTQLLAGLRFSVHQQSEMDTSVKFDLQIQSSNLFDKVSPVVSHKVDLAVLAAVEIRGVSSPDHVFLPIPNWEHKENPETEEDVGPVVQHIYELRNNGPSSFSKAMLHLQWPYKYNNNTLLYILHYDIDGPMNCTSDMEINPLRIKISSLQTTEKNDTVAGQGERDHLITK
T1 sequence (P06756 891-1048 partner limits assumed): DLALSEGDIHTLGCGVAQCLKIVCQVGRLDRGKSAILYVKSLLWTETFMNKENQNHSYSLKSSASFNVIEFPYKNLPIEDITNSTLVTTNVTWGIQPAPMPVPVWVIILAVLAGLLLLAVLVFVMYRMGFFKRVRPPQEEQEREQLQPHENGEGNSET
T1 sequence (P05106 27-788): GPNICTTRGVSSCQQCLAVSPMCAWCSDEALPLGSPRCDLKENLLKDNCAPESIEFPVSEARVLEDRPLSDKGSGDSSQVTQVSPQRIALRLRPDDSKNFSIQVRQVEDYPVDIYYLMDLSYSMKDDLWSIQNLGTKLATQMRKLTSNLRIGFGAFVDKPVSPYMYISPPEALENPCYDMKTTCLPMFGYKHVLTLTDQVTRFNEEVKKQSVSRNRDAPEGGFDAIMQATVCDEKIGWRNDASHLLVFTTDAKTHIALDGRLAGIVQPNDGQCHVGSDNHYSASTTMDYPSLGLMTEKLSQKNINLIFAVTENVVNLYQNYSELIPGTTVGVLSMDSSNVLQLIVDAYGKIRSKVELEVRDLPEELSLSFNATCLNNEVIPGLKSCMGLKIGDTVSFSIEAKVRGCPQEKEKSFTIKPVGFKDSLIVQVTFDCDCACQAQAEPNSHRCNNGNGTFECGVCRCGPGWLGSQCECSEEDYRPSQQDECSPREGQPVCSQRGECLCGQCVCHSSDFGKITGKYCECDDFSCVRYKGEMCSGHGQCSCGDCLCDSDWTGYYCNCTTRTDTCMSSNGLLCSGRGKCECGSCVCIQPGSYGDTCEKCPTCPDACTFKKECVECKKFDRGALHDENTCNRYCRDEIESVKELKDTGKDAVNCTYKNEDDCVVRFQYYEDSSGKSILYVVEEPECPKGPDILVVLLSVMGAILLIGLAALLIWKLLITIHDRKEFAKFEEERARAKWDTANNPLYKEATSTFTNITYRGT

| SMILES | IC50 [2, 7] [µM] | inhibition at 5 µM [2, 7] [%] | inhibition at 50 µM [2, 8] [%] | inhibition at 10 µM [3] [%] | also measured |
| --- | --- | --- | --- | --- | --- |
| CC(C)[C@@H]1NC(=O)[C@@H](Cc2ccccc2)NC(=O)[C@H](CC(=O)O)NC(=O)CNC(=O)[C@H](CCCN=C(N)N)NC1=O [cRGDfV, reference compound] |  |  |  |  | IC50 at 96 h [1]: 69.2 ± 25.5 µM |
| O=C1C[C@H](NS(=O)(=O)c2ccccc2)C(=O)N1[C@H]1C[C@@H](CCc2ccc3c(n2)NCCC3)C1 [Compound 34] | 3.28 ± 0.01 | 60.2 ± 14.8 | 73.9 ± 24.6 | 69.9 ± 1.8 |  |
| COC(=O)[C@H](CCNC(=O)[C@H]1C[C@@H](Cc2ccc3cccnc3n2)C1)NS(=O)(=O)c1ccccc1 [Compound 17] |  |  | 13 ± 25 | 23.3 ± 6.2 |  |
| CNc1cccc(CC[C@H]2C[C@@H](C(=O)NC[C@H](NS(=O)(=O)c3c(C)cc(C)cc3C)C(=O)O)C2)n1 [Compound 55] |  |  |  |  | stability of metabolite in liver ([4]; mouse liver homogenate): appears to be stable |
| Cc1cc(C)c(S(=O)(=O)N[C@H]2CC(=O)N([C@H]3C[C@@H](CCc4ccc5c(n4)NCCC5)C3)C2=O)c(C)c1 [Compound 35] | 1.8 ± 1 |  |  |  | inhibition at 0.5 µM ([2]; 0.5 μM, SK-Mel-2 adhesion to fibronectin): 45.6%; IC50 at 96 h [5]: 15.2 ± 5.5 µM |
| COC(=O)[C@H](CCNC(=O)[C@H]1C[C@@H](Cc2ccc3c(n2)NCCC3)C1)NS(=O)(=O)c1ccccc1 [Compound 21] | 29.4 ± 2.1 | 4 ± 9 |  | 49.5 ± 8.8 | inhibition at 50 µM [2, 9]: > 75% |
| COC(=O)[C@H](CC(=O)N[C@H]1C[C@@H](CCc2ccc3cccnc3n2)C1)NS(=O)(=O)c1ccccc1 [Compound 28] |  |  | 42.4 ± 16.3 | 28.5 ± 4.4 |  |
| COC(=O)[C@H](CC(=O)N[C@H]1C[C@@H](CCc2ccc3c(n2)NCCC3)C1)NS(=O)(=O)c1ccccc1 [Compound 32] |  | 45.4 ± 13.7 |  | 41.6 ± 4.7 |  |
| COC(=O)[C@H](CCNC(=O)[C@H]1C[C@@H](CCc2ccc3c(n2)NCCC3)C1)NS(=O)(=O)c1c(C)cc(C)cc1C [Compound 24] |  | 74 ± 10 |  | 35 ± 9 | inhibition at 50 µM [2, 9]: > 75% |
| COC(=O)[C@H](CCNC(=O)[C@H]1C[C@@H](Cc2ccc3cccnc3n2)C1)NS(=O)(=O)c1c(C)cc(C)cc1C [Compound 18] |  |  |  | 17.4 ± 3.7 | IC50 at 96 h [1]: 59.2 ± 16.9 µM |
| COC(=O)[C@H](CC(=O)N[C@H]1C[C@@H](CCc2ccc3c(n2)NCCC3)C1)NS(=O)(=O)c1c(C)cc(C)cc1C [Compound 33] | 1.2 ± 0.9 | 89.5 ± 8.7 |  | 33.7 ± 7.4 |  |
| CNc1cccc(CC[C@H]2C[C@@H](C(=O)NC[C@H](NS(=O)(=O)c3c(C)cc(C)cc3C)C(=O)OC)C2)n1 [Compound 54] | 0.6 ± 0.7 | 84.9 ± 11.2 |  | 48.6 ± 1 | half-life at 10 μM ([4]; liver homogenate (1:3), 10 μM, 37 °C, read-out: half-life of methyl ester cleavage to free acid): 3.6 min; toxicity / deleterious effects ([6]; three dose levels up to 300 mg kg^−1 per day): No deleterious effects were observed; also recorded: non-toxic; bodyweight ([6]; up to 300 mg kg^−1 per day): remained within normal levels |
| Cc1cc(C)c(S(=O)(=O)N[C@H]2CC(=O)N([C@H]3C[C@@H](CCc4ccc5cccnc5n4)C3)C2=O)c(C)c1 [Compound 31] | 49.5 ± 29.8 | 13.8 ± 9.7 | 60.9 ± 23.8 |  | IC50 at 96 h [5]: > 100 µM |
